The values below come from patent publication US9351963B2, “Defensin-like molecules as novel antimicrobial agents” (UNIVERSITY OF MARYLAND, BALTIMORE, priority 2010, dated 2016).

A short description of test [1]: Surface Plasmon Resonance binding to immobilized 3-Lipid II (BIAcore). The settings on record: defensin mimetics at 10 μM, immobilized 3-Lipid II, 25° C. The protocol: Short-chain water-soluble Lipid II containing a lipid tail of three isoprene units was generated and purified essentially as described (Breukink, E., van Heusden, H. E., Vollmerhaus, P. J., Swiezewska, E., Brunner, L., Walker, S., Heck, A. J., and de Kruijff, B. (2003) J Biol Chem 278, 19898-19903). Typically, M. flavus vesicles (120 μmol lipid-Pi) were incubated together with 500 μmol UDP-GlcNAc, 500 μmol UDP-MurNAC-pentapeptide and 400 μmol farnesyl phosphate (3-P) in 100 mM Tris-HCl pH 8.0, 5 mM MgCl2. The incubation lasted two hours at room temperature for 3-P. The synthesis of 3-Lipid II was followed using RP-8 reversed phase TLC (Merck) developed in 75% methanol. For purification, the membranes were removed by centrifugation at 40,000×g and the supernatant was collected and loaded on a C18 HPLC column and eluted with a linear gradient from 50 mM ammonium bicarbonate to 100% methanol in 30 minutes. Farnesyl-Lipid II (3-Lipid II) eluted at approximately 60% methanol. Its identity was confirmed by mass spectroscopy.
Surface Plasmon Resonance binding experiments were carried out on a BIAcore T100 system (BIAcore Inc., Piscataway, N.Y.) at 25° C. The assay buffer was 10 mM HEPES, 150 mM NaCl, 0.05% surfactant P20, pH 7.4 (±3 mM EDTA) supplemented with 10% DMSO. […] For initial determination of binding, defensin mimetics were introduced into the flow-cells (30 μl/min) in the running buffer at 10 μM. Resonance signals were corrected for nonspecific binding by subtracting the background of the control flow-cell. After each analysis, the sensor chip surfaces were regenerated with 50 mM NaOH for 30 s at a flow rate 100 μl/min, and equilibrated with the buffer prior to next injection. For binding kinetics studies, binding isotherms were analyzed with manufacturer-supplied software for BIAcore T100.

Test [2] is described as follows: NMR interaction with Lipid II. In kind it is binding. Conditions: 0.15 mM Lipid II + 0.15 mM compound, d6-DMSO, 25° C. The protocol:
The NMR samples included 0.15 mM Lipid II, 0.15 mM BAS00127538 compound, or 0.15 mM Lipid II+0.15 mM BAS00127538 compound. All samples were dissolved in 90% double distilled H20+10% DMSO, incubated for 30 minutes, freeze-dried, and then dissolved in 300 uL of d6-DMSO. NMR experiments were carried out at 25° C. on an 800 MHz Bruker Avance NMR spectrometer (800.27 MHz for protons) equipped with a pulse-field gradient unit, four frequency channels, and a triple resonance TXI cryoprobe (Bruker Biospin, Billerica, Mass.). 1D proton experiments were collected to probe for chemical shift changes and 2D TOCSY (30, 60, and 90 msec spinlock times), 2D NOESY (150 and 300 msec mixing times), and natural abundance ^13C-HSQC experiments were collected to determine proton and carbon chemical shift assignments.
To confirm the binding of defensins mimetic BAS00127538 to Lipid II the inventors observed by SPR, their interaction was studied directly by NMR (FIG. 7). Specifically, the inventors used 1D proton NMR spectra to determine if any chemical shift changes occur when the compound was added to 3-Lipid II. […] This Figure depicts an analysis of 2D TOCSY spectra collected at 800 MHz of the aromatic region of compound BAS00127538 alone (black) overlaid with spectra of compound bound to Lipid II (red). […]

On to `CN1/C(=C/C=C/c2cc(-c3ccccc3)cc(-c3ccccc3)[o+]2)C(C)(C)c2ccccc21` [BAS00127538, 2,4-diphenyl-6-[(1E)-3-[(2E)-1,3,3-trimethyl-2,3-dihydro-1H-indol-2-ylidene]prop-1-en-1-yl]-1$1^4-pyran-1-ylium], for which the “Binding to Lipid II as measured by SPR” value in test [1] is “most strongly bound”. In addition, the “Interaction with Lipid II by NMR analysis” value in test [2] is “found to interact”.
